# Measurements reported in patent US20090087431A1, “METHODS OF TREATING BONE DISORDERS WITH MODULATORS OF AXL” (Wyeth, priority 2007, published 2009).
# Key:
# Clone 14 cells = assay: Osteocalcin mRNA after siRNA transfection, osteoblast differentiation; assay type: cell-based, murine; details: all tested conditions (with and without BMP2), p<0.05
# Procedure: The role of Axl in osteoblast differentiation from an osteoprogenitor cell was investigated using RNA interference in the murine Clone 14 cell line. In these experiments, siRNA reagents against murine Axl were transfected into cells treated with either 0 ng/ml or 100 ng/ml BMP2. The induction of osteocalcin gene expression, an established osteoblast marker, was measured to assess osteoblast differentiation 4 days after the onset of treatment and transfection.
# Clone 14 cells were seeded at 20,000 cells/well in a 96-well plate and cultured in DMEM media supplemented with 10% fetal bovine serum (FBS) and 1% L-glutamine. The following day, cells were transfected for 4 hours with siRNA at a final concentration of 20 nM using 0.5% (final) Lipofectamine2000 (Invitrogen, Carlsbad, Calif.). Cells were then cultured in DMEM supplemented with 1% FBS and 1% penicillin/streptomycin. […]
# To assess the consequence of Axl knockdown on osteoblast differentiation, osteocalcin mRNA levels were monitored. […]
# An additional negative control was the same non-specific, scrambled siRNA described above (NSP). Osteocalcin mRNA levels were monitored by real-time RT-PCR as above using the primers set forth in SEQ ID NO:9, SEQ ID NO:10, and SEQ ID NO:11 and shown below:
# Osteocalcin mRNA levels are shown relative to those monitored in cells transfected with a scrambled, non-specific siRNA (NSP). […]
# MC3T3-E1 cells = assay: Formation of mineralized nodules, Alizarin red staining; assay type: cell-based, murine; details: 20 nM siRNA, Day 17 post-transfection, vs scrambled siRNA or mock
# Procedure: MC3T3-E1 cells were seeded at a density of 50,000 cells/well of a 6-well plate and cultured in Alpha media supplemented with 1% glutamine and 10% FBS. The following day the cells were transfected with 20 nM (final concentration) siRNA using 0.4% (final) Oligofectamine (Invitrogen) for 4 hours. The siRNAs used in this study include the pool of Axl siRNAs and the Cbfa1/Runx2 siRNA described above. In addition two control treatments were included: a mock transfection where no siRNA was introduced and a non-specific, scrambled siRNA (as described).
# Following transfection, the cells were maintained in Alpha media supplemented with 1% glutamine, 10% FBS and 10 mM β-glycerophosphate, a cofactor necessary for mineralization, with no other osteogenic agents. […]
# To determine mineralization, cells were washed in PBS, fixed in cold ethanol and stained with Alizarin red using standard protocols. Semi-quantification of the extent of mineralization was conducted by de-staining the cells in 10% Cetylpyridinium chloride in 10 mM sodium phosphate for 15 minutes at room temperature. Supernatants were removed and absorbance at 570 nm measured. Concentrations were determined by obtaining absorbance measurements of a standard curve of known dilutions of Alizarin red (range from 50-400 uM). Mineralization was visually assessed by the presence of red-stained nodules.
substance,measurement,setting,value
"Runx2/Cbfa1: siRNA against Runx2/Cbfa1, 5′-CGUGAAUGGUCAUAAUAACU-3′; negative control (listed as RNA, chemistry not given here)",osteoblast differentiation as monitored by osteocalcin mRNA expression,Clone 14 cells,dramatically repressed
same,"extent of mineralization (visual, Alizarin red)",MC3T3-E1 cells,dramatic reduction
